Measured values from patent US20240024262A1, “USE OF VALERIC ACID IN PREPARATION OF DRUG FOR PREVENTING AND TREATING DIABETES” (Harbin Medical University, priority 2022, published 2024).

Key:
Beta-TC-6 cell line [1] = experiment: Insulin secretion ability test; type: cell-based, mouse; settings: for secretion levels of the insulin stimulated under a high glucose environment: high sugar (20 mmol/L), after PA intervention
Source text: (§1) Through an insulin secretion ability test, the levels of the insulin produced in each group under concentrations of no sugar, low sugar (2.8 mmol/L) and high sugar (20 mmol/L) are compared.

[2] = system: mouse primary islet β cells; experiment: EdU-488 cell proliferation test; type: cell-based; settings: PA alone, or SV 1 mmol/L after PA compared with PA group
Source text: (§2) During the cell testing phase of this example, a cell line of mouse insulinoma islet β cells (Beta-TC-6) and mouse primary islet β cells were purchased from Wuhan Prosser Life Technology Co., Ltd for carrying out relevant experimental researches.
(§3) A cell Counting Kit 8 (CCK-8) is a convenient and reliable method to detect the cell activity. In this example, a BeyoClick™ EdU-488 kit is further used to detect the proliferation level of the cells. EdU (5-ethynyl-2′-deoxyuridine) is a thymidine analog that may replace T to infiltrate replicated DNA molecules in the process of cell proliferation. The replication activity of DNA was detected by specific reaction of EdU and an Apollo® Fluor 488 fluorescent dye, an EdU label was correctly detected, and then proliferation of cells was reflected. In this example, expression of Ki-67 in the cells was detected by immunofluorescence (immunocytochemistry), and apoptosis was analyzed by referring to a one-step TUNEL cell apoptosis detection kit (red fluorescence). Meanwhile, this example used a flow cytometry technology to complete detection of a cell cycle and apoptosis.
(§4) The following drugs are taken as comparative examples: • 1. […]

[3] = system: mouse primary islet β cells; experiment: TUNEL cell apoptosis detection test; type: cell-based; settings: PA intervention, then SV intervention
Source text: as §2, §3

Beta-TC-6 cells [4] = experiment: Flow cytometry apoptosis analysis; type: cell-based, mouse; settings: Beta-TC-6, flow cytometry; PA intervention, then SV intervention
Source text: as §3
Sodium valerate SV can weaken PA induced apoptosis to a certain extent (FIG. 17).

Beta-TC-6 cell line [5] = experiment: TUNEL cell apoptosis detection test; type: cell-based, mouse; settings: PA intervention, then SV intervention
Source text: as §2, §3

Beta-TC-6 cells [6] = experiment: EdU-488 cell proliferation test; type: cell-based, mouse; settings: PA alone, or SV 1 mmol/L after PA compared with PA group
Source text: as §2, §3, §4

[7] = system: mouse primary islet β cells; experiment: Insulin secretion ability test; type: cell-based; settings: for secretion levels of the insulin stimulated under a high glucose environment: high sugar (20 mmol/L), after PA intervention
Source text: as §1

[8] = system: Leptin receptor gene deficient db/db mice; experiment: Type 2 diabetes model db/db mice: food intake, body weight, blood glucose-related indexes; type: in vivo; settings: comparison among groups / vs PBS control group
Protocol: The following drugs are taken as comparative examples: • 1. Comparative example where an existing drug serves as a positive control • (1) High-fat fed C57BL6/J mice • Sodium butyrate gavage intervention group: 75.0 mg/kg • (2) Type 2 diabetes model db/db mice • Sodium butyrate gavage intervention group: 75.0 mg/kg • Harmine gavage intervention group: 10.0 mg/kg • Metformin gavage intervention group: 100.0 mg/kg • (3) Cell line of mouse insulinoma islet β cells (Beta-TC-6) • Sodium butyrate intervention group: 1.0 mmol/L • Harmine intervention group: 10.0 μmmol/L • (4) Mouse islet β primary cell • Sodium butyrate intervention group: 1.0 mmol/L • Harmine intervention group: 10.0 μmmol/L • 2. A control test is taken as a comparative example • (1) High-fat fed C57BL6/J mice • Ordinary feed feeding group, and high-fat feed PBS gavage group • (2) Type 2 diabetes model db/db mice • Control feeding group and PBS gavage group • (3) Cell line of mouse insulinoma islet β cells (Beta-TC-6) • Blank control group, and palmitic acid (PA) intervention negative control group • (4) Mouse islet β primary cell • Blank control group, and PA intervention negative control group • Results are as follows:
(II) In the animal test, the therapeutic effect of the valeric acid on diabetes is observed by using Leptin receptor gene deficient db/db mice (purchased from Nanjing Junke Biotechnology Co., Ltd.) as test subjects.

CCCCC(=O)[O-].[Na+] [sodium valerate]
secretion levels of the insulin stimulated under a high glucose environment (Beta-TC-6 cell line [1]): more significant
secretion levels of the insulin stimulated under a high glucose environment (Beta-TC-6 cell line [1]; listed as SV): significantly increased
proportion of EdU (+) cells [2]: increased significantly
proportion of apoptotic cells (TUNEL) [3]: slightly decreased
proportion of apoptotic cells, Q2 quadrant (late apoptosis) and Q3 quadrant (early apoptosis) (Beta-TC-6 cells [4]): decreased significantly
proportion of apoptotic cells (TUNEL) (Beta-TC-6 cell line [5]): slightly decreased
proportion of EdU (+) cells (Beta-TC-6 cells [6]): increased significantly
secretion levels of the insulin stimulated under a high glucose environment [7]: more significant
secretion levels of the insulin stimulated under a high glucose environment ([7]; listed as SV): significantly increased

COc1ccc2c(c1)[nH]c1c(C)nccc12 [Harmine]
secretion levels of the insulin stimulated under a high glucose environment (Beta-TC-6 cell line [1]): significantly increased
secretion levels of the insulin stimulated under a high glucose environment [7]: significantly increased

CCCCCCCCCCCCCCCC(=O)O [PA, palmitic acid, reference compound]
secretion ability of the insulin (Beta-TC-6 cell line [1]; PA intervention): decreased significantly
proportion of EdU (+) cells [2]: decreased significantly
proportion of apoptotic cells (TUNEL) [3]: increased significantly
proportion of apoptotic cells, Q2 quadrant (late apoptosis) and Q3 quadrant (early apoptosis) (Beta-TC-6 cells [4]): increased significantly
proportion of apoptotic cells (TUNEL) (Beta-TC-6 cell line [5]): increased significantly
proportion of EdU (+) cells (Beta-TC-6 cells [6]): decreased significantly
secretion ability of the insulin ([7]; PA intervention): decreased significantly

CN(C)C(=N)N=C(N)N [metformin, reference compound]
insulin secretion [8]: basically no difference

CCCC(=O)[O-].[Na+] [Sb, sodium butyrate]
secretion levels of the insulin stimulated under a high glucose environment (Beta-TC-6 cell line [1]): significantly increased
secretion levels of the insulin stimulated under a high glucose environment [7]: significantly increased
